Measurements as given in US11440905B2, “Biheterocyclic compound” (SUMITOMO PHARMA CO., LTD., priority 2016, dated 2022).

Assays:
[1] = molecular target: T1, mouse semaphorin 3A (Sema3A) (Mus musculus, UniProt O08665); test: Inhibitory activity for the collapse activity caused by Sema3A (growth cone collapse assay, Test 1); format: cell-based; conditions: chick embryo dorsal root ganglion, 3 units/mL mouse Sema3A, smaller value = more potent inhibition, read-out: residual ratio (%) of Sema3A activity (collapse assay); for remaining activity at 1 µM: 1 μM test compound
T1 sequence (O08665 21-772): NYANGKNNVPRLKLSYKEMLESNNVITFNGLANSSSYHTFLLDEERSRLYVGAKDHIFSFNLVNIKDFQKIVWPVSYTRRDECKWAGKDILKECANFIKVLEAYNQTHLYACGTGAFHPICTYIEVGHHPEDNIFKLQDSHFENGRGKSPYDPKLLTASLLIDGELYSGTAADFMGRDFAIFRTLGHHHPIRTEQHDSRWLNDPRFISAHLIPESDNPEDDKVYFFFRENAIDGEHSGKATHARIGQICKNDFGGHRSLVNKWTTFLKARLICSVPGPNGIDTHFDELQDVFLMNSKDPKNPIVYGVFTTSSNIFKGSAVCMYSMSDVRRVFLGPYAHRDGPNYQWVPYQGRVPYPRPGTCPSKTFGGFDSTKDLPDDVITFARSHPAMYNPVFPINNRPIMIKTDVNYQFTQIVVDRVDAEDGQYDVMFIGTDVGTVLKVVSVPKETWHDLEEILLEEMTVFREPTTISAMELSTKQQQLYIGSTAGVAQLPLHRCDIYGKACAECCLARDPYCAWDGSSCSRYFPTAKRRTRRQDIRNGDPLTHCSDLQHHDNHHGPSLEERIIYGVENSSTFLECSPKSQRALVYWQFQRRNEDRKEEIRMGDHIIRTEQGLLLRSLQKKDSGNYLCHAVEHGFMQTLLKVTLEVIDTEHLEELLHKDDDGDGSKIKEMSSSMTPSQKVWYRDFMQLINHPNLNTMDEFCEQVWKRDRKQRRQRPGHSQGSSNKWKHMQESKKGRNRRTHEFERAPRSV
Procedure: Inhibitory Activity for the Collapse Activity Caused by Sema3A
96 well-plate (SUMITOMO BAKELITE CO., LTD.) which was beforehand coated with polylysine was further coated with laminin (10 μL laminin, at room temperature, for 1 hour). To each well was added 100 μL of a medium (F12 medium containing 10% fetal bovine serum, 20 ng/mL NGF, 100 unit/mL penicillin, and 100 μg/mL streptomycin). Dorsal root ganglion harvested from 7-8 day-old chick embryo was inoculated thereto, and the culture medium was cultivated under the condition of 5% CO2 and 37° C. for 16-20 hours. And then, each test compound in various concentrations was added to the medium, each test medium was cultivated for 30 minutes, 3 units/mL mouse semaphorin 3A (Sema3A) was added to each medium, and then each test medium was cultivated for more 30 minutes. Then, glutaraldehyde was added to the medium, in which the final concentration of glutaraldehyde was 1%. The medium was left to stand at room temperature for 15 minutes to make the tissue fragment fixed, and the ratio of the retracted growth cone was measured under a microscope.

[2] = test system: dry eye-model rat (exorbital lacrimal gland excised); test: Drug evaluation for corneal disorder in dry eye-model rat (Test 3); format: in vivo; conditions: eye drop 1 μL per shot, 6 times per day, 4 weeks
Procedure: (Test 3) Drug Evaluation for Corneal Disorder in Dry Eye-Model Rat
A model rat whose exorbital lacrimal gland is excised is generally used as a model for evaluating the drug efficacy for corneal disorder caused by dry eye. As for corneal disorder of the rat, hyaluronic acid (HA) and diquafosol sodium (DQS) which are existing drugs, and the present compound (Example 3) were administered to the rat, and each efficacy thereof was evaluated.
Male SD rat was anesthetized with inhalational isoflurane, and the exorbital lacrimal gland thereof was excised to prepare a dry eye-model rat (the conditions to prepare the dry eye-model rat can be changed as necessary, for example, by combining the excision of exorbital lacrimal gland with the medication of streptozotocin or the like). […]
The site of corneal disorder was stained with a fluorescein (FITC) solution, and the extent of the disorder was evaluated with the score gained from the following method. […]
The statistical significance for the drug effect was evaluated by nonparametric Tukey's multiple comparison test, in which the result of each test group was compared with that of the control (intact) group which was not operated by excising exorbital lacrimal gland.

[3] = test system: dry eye-model rat associated with the dysfunction of corneal nerves; test: Drug evaluation for the dysfunction of corneal nerves in dry eye rat model (Test 4); format: in vivo; conditions: lacrimal gland excision plus streptozotocin 55 mg/kg i.p.; eye drop 1 μL per shot, 6 times per day, 4 weeks; 0.3% HA, 3% DQS, 0.1% Example 3
Procedure: Drug Evaluation for the Dysfunction of Corneal Nerves in Dry Eye Rat Model
Male SD rat was anesthetized with inhalational isoflurane. The exorbital lacrimal gland thereof was excised, and at the same day, streptozotocin was administered intraperitoneally to the rat (55 mg/kg) to prepare a dry eye-model rat associated with the dysfunction of corneal nerves. Several weeks after the operation, 0.3% HA ophthalmic solution, 3% DQS ophthalmic solution, and 0.1% the ophthalmic solution of the present compound (Example 3) were administered to the rat in an awareness at 1 μL per shot, 6 times per day, for 4 weeks.
The cornea of the rat was softly held by hand. The drug effect for the dysfunction of corneal nerves was evaluated through blink reflex by contacting the cornea with the nylon filament of cochet-bonnet corneal esthesiometer. First, the tip of the nylon filament (length: 60 mm, diameter: 0.12 mm) was made to almost-vertically contact with the center of cornea, and the nylon filament was made to curve a little. […]
The statistical significance for the drug effect was evaluated by confirming that P value is less than 5% in Student's t test between the intact group and the PBS group, and then carrying out Student's t test between the intact group and the present compound group. […]

[4] = test system: dry eye-model rat (exorbital lacrimal gland excised); test: Drug evaluation for corneal disorder in dry eye rat model (Test 5); format: in vivo; conditions: 0.01% to 1% ophthalmic solutions, 1 μL per shot, twice per day, 4 weeks; ** denotes p<0.01
Procedure: Drug Evaluation for Corneal Disorder in Dry Eye Rat Model
For the corneal disorder in the model rat whose exorbital lacrimal gland is excised, the drug effect was evaluated about hyaluronic acid (HA) which is an existing drug, and the present compound.
Male SD rat was anesthetized with inhalational isoflurane, and the exorbital lacrimal gland thereof was excised to prepare a dry eye-model rat (the conditions to prepare the dry eye-model rat can be changed as necessary, for example, by combining the excision of exorbital lacrimal gland with the medication of streptozotocin or the like). Three weeks after the operation, each vehicle for eye drop (typically phosphate-buffered saline (PBS)), and 0.01%, 0.1%, and 1% the ophthalmic solutions of the present compound (Example 19) were administered to the rat in an awareness at 1 μL per shot, twice per day, for 4 weeks.
The scoring of disorder extent in the site of corneal disorder was evaluated with 4 grades of the evaluation criteria of 0-3 according to Test 3.
The statistical significance for the drug effect was evaluated by nonparametric Tukey's multiple comparison test, in which the result of each test group was compared with that of the vehicle-administration group (PBS) in which the rat's exorbital lacrimal gland is excised.

| remaining activity at 1 µM [1] [%] | remaining activity at 3 µM ([1]; 3 μM test compound) [%] | SMILES | therapeutic effect for corneal disorder caused by dry eye (fluorescein staining score 0-3) ([2]; 0.3% HA, 3% DQS, Example 3 ophthalmic solution, compared with intact group) | improvement of corneal disorder compared with the vehicle-administration group (PBS) ([2]; ** denotes p<0.01) | therapeutic effect for the dysfunction of corneal nerves (corneal perception, blink reflex, Cochet-Bonnet esthesiometer) [3] | improvement for corneal disorder (fluorescein staining score 0-3) vs vehicle-administration group (PBS) [4] |
| --- | --- | --- | --- | --- | --- | --- |
| 4 | – | Cn1cc(-c2coc3cc(O)c(O)c(C(=O)OCc4cn(CC(=O)N[C@@H](CCC(=O)O)C(=O)O)nn4)c3c2=O)c(=O)c2cc(O)c(O)cc21 [Example 3, N-({4-[({[3-(6,7-Dihydroxy-1-methyl-4-oxo-1,4-dihydroquinolin-3-yl)-6,7-dihydroxy-4-oxo-4H-chromen-5-yl]carbonyl}oxy)methyl]-1H-1,2,3-triazol-1-yl}acetyl)-L-glutamic acid] | potent therapeutic effect | significant improvement | marked therapeutic effect | – |
| 4.2 | 0 | Cn1cc(-c2coc3cc(O)c(O)c(C(=O)OCC(=O)N[C@@H](CCC(=O)O)C(=O)O)c3c2=O)c(=O)c2cc(O)c(O)cc21 [Example 19, N-[({[3-(6,7-Dihydroxy-1-methyl-4-oxo-1,4-dihydroquinolin-3-yl)-6,7-dihydroxy-4-oxo-4H-chromen-5-yl]carbonyl}oxy)acetyl]-L-glutamic acid] | – | – | – | marked improvement |
